We go through 41 substances from patent publication US6248586A, “Antisense modulation of PKA catalytic subunit C-alpha expression” (Isis Pharmaceuticals, Inc., priority 1999, dated 2001).

The test system of the first series is human PKA catalytic subunit C-alpha mRNA. As to the kind of experiment: Inhibition of PKA catalytic subunit C-alpha mRNA levels in oligonucleotide-treated cells, quantitative real-time PCR. The format is cell-based. More on the design: concentration or dose not given beside the values. The conditions noted are these: Table 1, phosphorothioate oligodeoxynucleotides, averages from two experiments. The procedure:
when cells reached 80% confluency, they were treated with oligonucleotide. For cells grown in 96-well plates, wells were washed once with 200 μL. OPTI-MEM™-1 reduced-serum medium (Gibco BRL) and then treated with 130 μL of OPTI-MEM™-1 containing 3.75 μg/mL LIPOFECTIN™ (Gibco BRL) and the desired concentration of oligonucleotide. After 4-7 hours of treatment, the medium was replaced with fresh medium. Cells were harvested 16-24 hours after oligonucleotide treatment.
Poly(A)+ mRNA was isolated according to Miura et al., Clin. Chem., 1996, 42, 1758-1764. Other methods for poly(A)+ mRNA isolation are taught in, for example, Ausubel, F. M. et al., Current Protocols in Molecular Biology, Volume 1, pp. 4.5.1-4.5.3, John Wiley & Sons, Inc., 1993. Briefly, for cells grown on 96-well plates, growth medium was removed from the cells and each well was washed with 200 μL cold PBS. 60 μL lysis buffer (10 mM Tris-HCl, pH 7.6, 1 mM EDTA, 0.5 M NaCl, 0.5% NP-40, 20 mM vanadyl-ribonucleoside complex) was added to each well, the plate was gently agitated and then incubated at room temperature for five minutes. 55 μL of lysate was transferred to Oligo d(T) coated 96-well plates (AGCT Inc., Irvine Calif.). Plates were incubated for 60 minutes at room temperature, washed 3 times with 200 μL of wash buffer (10 mM Tris-HCl pH 7.6, 1 mM EDTA, 0.3 M NaCl). After the final wash, the plate was blotted on paper towels to remove excess wash buffer and then air-dried for 5 minutes. 60 μL of elution buffer (5 mM Tris-HCl pH 7.6), preheated to 70° C. was added to each well, the plate was incubated on a 90° C. hot plate for 5 minutes, and the eluate was then transferred to a fresh 96-well plate.
Quantitat:ion of PKA catalytic subunit C-alpha mRNA levels was determined by real-time quantitative PCR using the ABI PRISM™ […] Sequence Detection System (PE-Applied Biosystems, Foster City, Calif.) according to manufacturer's instructions. This is a closed-tube, non-gel-based, fluorescence detection system which allows high-throughput quantitation of polymerase chain reaction (PCR) products in real-time. As opposed to standard PCR, in which amplification products are quantitated after the PCR is completed, products in real-time quantitative PCR are quantitated as they accumulate. This is accomplished by including in the PCR reaction an oligonucleotide probe that anneals specifically between the forward and reverse PCR primers, and contains two fluorescent dyes. A reporter dye (e.g., JOE, FAM, or VIC, obtained from either Operon Technologies Inc., Alameda, Calif. or PE-Applied Biosystems, Foster City, Calif.) is attached to the 5' end of the probe and a quencher dye (e.g., TAMRA, obtained from either Operon Technologies Inc., Alameda, Calif. or PE-Applied Biosystems, Foster City, Calif.) is attached to the 3' end of the probe. When the probe and dyes are intact, reporter dye emission is quenched by the proximity of the 3' quencher dye. During amplification, annealing of the probe to the target sequence creates a substrate that can be cleaved by the 5'-exonuclease activity of Taq polymerase. […] With each cycle, additional reporter dye molecules are cleaved from their respective probes, and the fluorescence intensity is monitored at regular intervals by laser optics built into the ABI PRISM™ 7700 Sequence Detection System. In each assay, a series of parallel reactions containing serial dilutions of mRNA from untreated control samples generates a standard curve that is used to quantitate the percent inhibition after antisense oligonucleotide treatment of test samples.
PCR reagents were obtained from PE-Applied Biosystems, Foster City, Calif. […]
With “102589 (antisense TAGTTTTCAAATATGTTTAC; chemistry not given here) [compound 102589]”, the “% Inhibition of PKA catalytic subunit C-alpha mRNA levels” value (shortened to “% Inhibition”) is given as 0%.

The series is the same for the next values; noted with them: Table 2, chimeric phosphorothioate 2'-MOE gapmers, averaged from two experiments.
As to “102594 (antisense TGGCTGCGGCCGGCGGCCCG; chemistry not given here) [compound 102594]”, the “% Inhibition” value turned out to be 55%. Still for that read-out and setting: the result for “102599 (antisense GCGGCGGGTGCTGGCTGCGG; chemistry not given here) [compound 102599]” reads 77%; that for “102604 (antisense TCGCGGCGGCGGCGGCCGGG; chemistry not given here) [compound 102604]”, 70%. In the case of “102609 (antisense CATCGCGGCGGCGGCGGCCG; chemistry not given here) [compound 102609]”, the “% Inhibition” value was found to be 66%. “102614 (antisense CCCATCGCGGCGGCGGCGGC; chemistry not given here) [compound 102614]”: the “% Inhibition” value is reported as 77%.

On to “102619 (antisense TGCCCATCGCGGCGGCGGCG; chemistry not given here) [compound 102619]”, for which the “% Inhibition” value is 70%. With “102624 (antisense GTTGCCCATCGCGGCGGCGG; chemistry not given here) [compound 102624]”, the “% Inhibition” value is listed as 81%.

Turning to “102629 (antisense GCGTTGCCCATCGCGGCGGC; chemistry not given here) [compound 102629]”, the “% Inhibition” value was determined as 79%. On the same count and under the same terms, as for “102633 (antisense CGGCGTTGCCCATCGCGGCG; chemistry not given here) [compound 102633]”, the figure is 81%; as for “102636 (antisense GGCGGCGTTGCCCATCGCGG; chemistry not given here) [compound 102636]”, 41%. Still for that read-out and setting: as for “102640 (antisense GCGGCGGCGTTGCCCATCGC; chemistry not given here) [compound 102640]”, the figure is 87%; as for “102645 (antisense CGGCGGCGGCGTTGCCCATC; chemistry not given here) [compound 102645]”, 84%.

Take “102649 (antisense GGCGGCGGCGGCGTTGCCCA; chemistry not given here) [compound 102649]”: the “% Inhibition” value is 85%. As to “102653 (antisense ATTCTTTCACGCTCTCCTGC; chemistry not given here) [compound 102653]”, the “% Inhibition” value stood at 55%. The same measure, in the same setting: the result for “102657 (antisense CAAACTGATCCAAGTGGGCT; chemistry not given here) [compound 102657]” reads 73%. Regarding “102660 (antisense CCAGCATCACCCGCCCGAAG; chemistry not given here) [compound 102660]”, the “% Inhibition” value is 82%. Consider “102664 (antisense CTTCTGTTTGTCGAGGATCT; chemistry not given here) [compound 102664]”, for which the “% Inhibition” value is reported as 76%. Same read-out and setting: the result for “102668 (antisense GCTTGCAGGATGCGCTTTTC; chemistry not given here) [compound 102668]” reads 76%; that for “102672 (antisense GTTGTCCTTGAAGGAGAACT; chemistry not given here) [compound 102672]”, 28%. As to “102676 (antisense GAACATCTCCCCGCCGGGCA; chemistry not given here) [compound 102676]”, the “% Inhibition” value is on record as 92%. Take “102680 (antisense TAGATGAGATCCAGCGAGTG; chemistry not given here) [compound 102680]”: the “% Inhibition” value worked out at 33%. The same measure, in the same setting: the result for “102684 (antisense GCGGCCCTTCACGCGCTTGG; chemistry not given here) [compound 102684]” reads 63%; that for “102688 (antisense TCTGCGAAGAAGGGCGGGTA; chemistry not given here) [compound 102688]”, 52%. As to “102692 (antisense TCCTTCAAGTCAGAGCTGAA; chemistry not given here) [compound 102692]”, the “% Inhibition” value turned out to be 67%. Still for that read-out and setting: the result for “102696 (antisense AAACCACTTGTGGTTCTTGA; chemistry not given here) [compound 102696]” reads 71%. The same measure, in the same setting: the result for “102700 (antisense CTTCCTCATAGTCGTCAAAG; chemistry not given here) [compound 102700]” reads 44%.

In the case of “102703 (antisense GGCATGCCCCTAAAACTCAG; chemistry not given here) [compound 102703]”, the “% Inhibition” value was found to be 26%.

For “102707 (antisense GGAGCAGCTGGTGTTTCTGT; chemistry not given here) [compound 102707]”, the “% Inhibition” value was determined as 73%. “102711 (antisense TTGGCGCTTCGTTCATTTGC; chemistry not given here) [compound 102711]”: the “% Inhibition” value amounted to 60%. As for “102716 (antisense AAGCAACCCACTGAACATGT; chemistry not given here) [compound 102716]”, the “% Inhibition” value is recorded as 63%. Still for that read-out and setting: the result for “102720 (antisense GCTTCTCTTTAAAATGGATT; chemistry not given here) [compound 102720]” reads 56%.

Regarding “102724 (antisense ACCCTCGCAGGATTGGCAGA; chemistry not given here) [compound 102724]”, the “% Inhibition” value stood at 55%. Regarding “102727 (antisense CGCTGCTGGGAGGAAAGACT; chemistry not given here) [compound 102727]”, the “% Inhibition” value turned out to be 60%. Same read-out and setting: the result for “102731 (antisense TGCAGGGATGCCCTCCCCAC; chemistry not given here) [compound 102731]” reads 54%; that for “102736 (antisense CCTTGAACCCCGGGCCGTGG; chemistry not given here) [compound 102736]”, 65%. Still for that read-out and setting: as for “102738 (antisense CAGGCAGCCCCTCCCCAGCA; chemistry not given here) [compound 102738]”, the figure is 31%; as for “102741 (antisense AGCACAAATGAGAAAGTGGG; chemistry not given here) [compound 102741]”, 53%; as for “102744 (antisense TGGCTCCCCAGCGGCTCCCC; chemistry not given here) [compound 102744]”, 77%. Same read-out and setting: as for “102747 (antisense CACACAGGTTGAATCGCCCC; chemistry not given here) [compound 102747]”, the figure is 81%; as for “102750 (antisense TAGTTTTCAAATATGTTTAC; chemistry not given here) [compound 102750]”, 66%.
